Results as given in patent publication US5173500A, “Pharmaceutical compositions and methods of sulphonamides containing a tetrazolyl radical” (Boehringer Mannheim GmbH, priority 1988, dated 1992).

Key:
[1] = test system: thrombocyte aggregation induced by thromboxane mimetic U 46619 (TX antagonistic effect); assay: Thrombocyte aggregation induced by U 46619 in platelet-rich plasma (method of Born and Cross); assay type: cell-based; conditions: Homo sapiens, 5 min; platelet-rich plasma of healthy blood donors; aggregation induced by U 46619, followed over 5 minutes
From the text: Thrombocyte aggregation was investigated by the method of Born to Cross (J. Physiol. 168, 178 (1963)) in platelet-rich plasma of healthy blood donors. To inhibit clotting, the blood was mixed with 3.2% citrate in a ration by volume 1:9.
To induce thrombocyte aggregation, U 46619 (Upjohn & Co., Kalamazoo, Mich., USA), which is a stable analog of the prostagladin endoperoxide PHG2, was used. U 46619 has been characterized as a selective thromboxane mimetic (Coleman et al., Brit. J. Pharmacol. 68, 127 P., 1980).
The aggregation test was carried out in a 4-channel aggregometer (Profiler®, of the Bio/Data Co., USA). The course of the aggregation was followed over a period of 5 minutes. At the end of the test, the degree of aggregation attained was printed out. These values, which were obtained in the presence of different concentrations of the substance being tested, were used for the determination of the IC50 value for the TX antagonistic effect. The effectiveness varies inversely with the IC50 value.

[2] = test system: Male NMRI mice challenged with lethal dose of U 46619; assay: Survival of mice after lethal i.v. injection of thromboxane mimetic U 46619; assay type: in vivo; conditions: Mus musculus, iv, lethal dose U 46619 (800-1000 ug/kg) i.v. after 4 hours; for responders at 1 mg/kg: 1 mg/kg by stomach tube in 1% methylcellulose, read-out: Survival Rate of Mouse 1 mg/kg, 4 h in %; for responders at 25 mg/kg: 25 mg/kg by stomach tube in 1% methylcellulose, read-out: Survival Rate of Mouse 25 mg/kg, 4 h in %
Method: Male NMRI mice, with a body weight of 25 g, were used. The test substance was suspended in 1% methylcellulose and administered to the experimental animals with the aid of a stomach tube. The provacation test consisted of injecting a lethal dose (800-1000/ug/kg) of the thromboxane mimetic (U 46619, Upjohn Co.) rapidly into the tail vein. The duration of the specific antagonistic effect was tested by pretreating the animals with 25 or 1 mg/kg of the different test substances and injecting U 46619 after 4 hours. The survival rate indicates how many of the animals which were used survived the injection of the thromboxane mimetic.

## O=C(CCC(=O)c1ccc(CCNS(=O)(=O)c2ccc(Br)cc2)cc1)Nc1nnn[nH]1 [6/III, 4-Oxo-4-{4-[2-(4-bromobenzenesulphonamido)-ethyl]-phenyl}-butyric acid (1H-tetrazol-5-yl)-amide]
[1]
  IC50: 55 µM
[2]
  responders at 1 mg/kg: 100%
  responders at 25 mg/kg: 100%

## O=C(COc1ccc(CCNS(=O)(=O)c2ccc(Cl)cc2)cc1)Nc1nnn[nH]1 [Example 4, 4-[2-(4-Chlorobenzenesulphonamido)-ethyl]-phenoxyacetic acid (1H-tetrazol-5-yl)-amide]
[1]
  IC50: 9 µM
[2]
  responders at 1 mg/kg: 80%
  responders at 25 mg/kg: 100%

## O=S(=O)(NCCc1ccc(Nc2nnn[nH]2)cc1)c1ccc(Cl)cc1 [Example 3, 4-[2-(4-Chlorobenzenesulphonamido)-ethyl]-N-(1H-tetrazole-5-yl)-aniline]
[1]
  IC50: 0.2 µM
[2]
  responders at 1 mg/kg: 20%
  responders at 25 mg/kg: 100%

## O=C(COc1cccc(CCNS(=O)(=O)c2ccc(Cl)cc2)c1)Nc1nnn[nH]1 [Example 2, 3-[2-(4-Chlorobenzenesulphonamido)-ethyl]-phenoxyacetic acid (1H-tetrazol-5-yl)-amide]
[1]
  IC50: 6 µM
[2]
  responders at 1 mg/kg: 100%
  responders at 25 mg/kg: 100%

## O=C(Cc1ccc(CCNS(=O)(=O)c2ccc(Cl)cc2)cc1)Nc1nnn[nH]1 [Example 5, 4-[2-(4-Chlorobenzenesulphonamido)-ethyl]-phenylacetic acid (1H-tetrazol-5-yl)-amide]
[1]
  IC50: 0.9 µM
[2]
  responders at 1 mg/kg: 80%
  responders at 25 mg/kg: 100%

## Cc1ccc(S(=O)(=O)NCCc2cccc(OCC(=O)Nc3nnn[nH]3)c2)cc1 [Example 15, 3-[2-(4-Methylbenzenesulphonamido)-ethyl]-phenoxyacetic acid (1H-tetrazol-5-yl)-amide]
[1]
  IC50: 24 µM
[2]
  responders at 1 mg/kg: 100%
  responders at 25 mg/kg: 100%

## O=S(=O)(NCCc1ccc(Cc2nnn[nH]2)cc1)c1ccc(Cl)cc1 [Example 8, 5-{4-[2-(4-Chlorobenzenesulphonamido)-ethyl]-phenyl-methyl}-1H-tetrazole]
[1]
  IC50: 0.07 µM
[2]
  responders at 1 mg/kg: 100%
  responders at 25 mg/kg: 100%

## O=C(COc1cccc(CCNS(=O)(=O)c2ccccc2Cl)c1)Nc1nnn[nH]1 [Example 16, 3-[2-(2-Chlorobenzenesulphonamido)-ethyl]-phenoxyacetic acid (1H-tetrazol-5-yl)-amide]
[1]
  IC50: 17 µM
[2]
  responders at 1 mg/kg: 40%
  responders at 25 mg/kg: 100%
